Measurements as given in PubChem BioAssay AID1259407 (Chemical Carcinogenesis Research Information System (CCRIS), 2018).
Active and inactive are the calls of the source. The rule behind the calls is not given here.

Test system: CCRIS mutagenicity, Ames/micronucleus/aberration tests
Assay: CCRIS mutagenicity studies
[1] = Test System: AMES SALMONELLA TYPHIMURIUM, Strain/Indicator: TA97, Metabolic Activation: NONE, Method: PREINCUBATION

Measured: mutagenic call

Cl/C=C\Cl
inactive: End Point: IN VITRO CHROMOSOMAL ABERRATIONS, Test System: CHINESE HAMSTER LUNG (CHL), Metabolic Activation: NONE inactive; negative | End Point: IN VITRO CHROMOSOMAL ABERRATIONS, Test System: CHINESE HAMSTER LUNG (CHL), Metabolic Activation: RAT. LIVER, S-9, KC-400 inactive; negative | Test System: AMES SALMONELLA TYPHIMURIUM, Strain/Indicator: TA97, Metabolic Activation: HAMSTER LIVER S-9, AROCLOR 1254 (10%), Method: PREINCUBATION inactive; negative | Test System: AMES SALMONELLA TYPHIMURIUM, Strain/Indicator: TA97, Metabolic Activation: HAMSTER LIVER S-9, AROCLOR 1254 (30%), Method: PREINCUBATION inactive; negative | Test System: AMES SALMONELLA TYPHIMURIUM, Strain/Indicator: TA97, Metabolic Activation: HAMSTER, LIVER, S-9, AROCLOR 1254 (10%), Method: PREINCUBATION inactive; negative | Test System: AMES SALMONELLA TYPHIMURIUM, Strain/Indicator: TA97, Metabolic Activation: HAMSTER, LIVER, S-9, AROCLOR 1254 (30%), Method: PREINCUBATION inactive; negative | [1] inactive; negative | Test System: AMES SALMONELLA TYPHIMURIUM, Strain/Indicator: TA97, Metabolic Activation: RAT LIVER S-9, AROCLOR 1254 (10% OR 30%), Method: PREINCUBATION inactive; negative | Test System: AMES SALMONELLA TYPHIMURIUM, Strain/Indicator: TA97, Metabolic Activation: RAT, LIVER, S-9, AROCLOR 1254 (10 OR 30%), Method: PREINCUBATION inactive; negative | Test System: AMES SALMONELLA TYPHIMURIUM, Strain/Indicator: TA98, Metabolic Activation: HAMSTER LIVER S-9, AROCLOR 1254 (10%), Method: PREINCUBATION inactive; negative | Test System: AMES SALMONELLA TYPHIMURIUM, Strain/Indicator: TA98, Metabolic Activation: HAMSTER LIVER S-9, AROCLOR 1254 (30%), Method: PREINCUBATION inactive; negative | Test System: AMES SALMONELLA TYPHIMURIUM, Strain/Indicator: TA98, Metabolic Activation: HAMSTER, LIVER, S-9, AROCLOR 1254 (10%), Method: PREINCUBATION inactive; negative | Test System: AMES SALMONELLA TYPHIMURIUM, Strain/Indicator: TA98, Metabolic Activation: HAMSTER, LIVER, S-9, AROCLOR 1254 (30%), Method: PREINCUBATION inactive; negative | Test System: AMES SALMONELLA TYPHIMURIUM, Strain/Indicator: TA98, Metabolic Activation: NONE, Method: PREINCUBATION inactive; negative | Test System: AMES SALMONELLA TYPHIMURIUM, Strain/Indicator: TA98, Metabolic Activation: RAT LIVER S-9, AROCLOR 1254 (10% OR 30%), Method: PREINCUBATION inactive; negative | Test System: AMES SALMONELLA TYPHIMURIUM, Strain/Indicator: TA98, Metabolic Activation: RAT, LIVER, S-9, AROCLOR 1254 (10 OR 30%), Method: PREINCUBATION inactive; negative | Test System: AMES SALMONELLA TYPHIMURIUM, Strain/Indicator: TA100, Metabolic Activation: HAMSTER LIVER S-9, AROCLOR 1254 (10%), Method: PREINCUBATION inactive; negative | Test System: AMES SALMONELLA TYPHIMURIUM, Strain/Indicator: TA100, Metabolic Activation: HAMSTER LIVER S-9, AROCLOR 1254 (30%), Method: PREINCUBATION inactive; negative | Test System: AMES SALMONELLA TYPHIMURIUM, Strain/Indicator: TA100, Metabolic Activation: HAMSTER, LIVER, S-9, AROCLOR 1254 (10%), Method: PREINCUBATION inactive; negative | Test System: AMES SALMONELLA TYPHIMURIUM, Strain/Indicator: TA100, Metabolic Activation: HAMSTER, LIVER, S-9, AROCLOR 1254 (30%), Method: PREINCUBATION inactive; negative | Test System: AMES SALMONELLA TYPHIMURIUM, Strain/Indicator: TA100, Metabolic Activation: NONE, Method: PREINCUBATION inactive; negative | Test System: AMES SALMONELLA TYPHIMURIUM, Strain/Indicator: TA100, Metabolic Activation: RAT LIVER S-9, AROCLOR 1254 (10% OR 30%), Method: PREINCUBATION inactive; negative | Test System: AMES SALMONELLA TYPHIMURIUM, Strain/Indicator: TA100, Metabolic Activation: RAT, LIVER, S-9, AROCLOR 1254 (10 OR 30%), Method: PREINCUBATION inactive; negative | Test System: AMES SALMONELLA TYPHIMURIUM, Strain/Indicator: TA1535, Metabolic Activation: HAMSTER LIVER S-9, AROCLOR 1254 (10%), Method: PREINCUBATION inactive; negative | Test System: AMES SALMONELLA TYPHIMURIUM, Strain/Indicator: TA1535, Metabolic Activation: HAMSTER, LIVER, S-9, AROCLOR 1254 (10%), Method: PREINCUBATION inactive; negative | Test System: AMES SALMONELLA TYPHIMURIUM, Strain/Indicator: TA1535, Metabolic Activation: HAMSTER, LIVER, S-9, AROCLOR 1254 (30%), Method: PREINCUBATION inactive; negative | Test System: AMES SALMONELLA TYPHIMURIUM, Strain/Indicator: TA1535, Metabolic Activation: NONE, Method: PREINCUBATION inactive; negative | Test System: AMES SALMONELLA TYPHIMURIUM, Strain/Indicator: TA1535, Metabolic Activation: RAT LIVER S-9, AROCLOR 1254 (10% OR 30%), Method: PREINCUBATION inactive; negative | Test System: AMES SALMONELLA TYPHIMURIUM, Strain/Indicator: TA1535, Metabolic Activation: RAT, LIVER, S-9, AROCLOR 1254 (10 OR 30%), Method: PREINCUBATION inactive; negative | Test System: AMES SALMONELLA TYPHIMURIUM, Strain/Indicator: TA1537, Metabolic Activation: HAMSTER LIVER S-9, AROCLOR 1254 (30%), Method: PREINCUBATION inactive; negative | Test System: AMES SALMONELLA TYPHIMURIUM, Strain/Indicator: TA1537, Metabolic Activation: HAMSTER, LIVER, S-9, AROCLOR 1254 (30%), Method: PREINCUBATION inactive; negative | Test System: AMES SALMONELLA TYPHIMURIUM, Strain/Indicator: TA1537, Metabolic Activation: NONE, Method: PREINCUBATION inactive; negative | Test System: AMES SALMONELLA TYPHIMURIUM, Strain/Indicator: TA1537, Metabolic Activation: RAT LIVER S-9, AROCLOR 1254 (30%), Method: PREINCUBATION inactive; negative | Test System: AMES SALMONELLA TYPHIMURIUM, Strain/Indicator: TA1537, Metabolic Activation: RAT, LIVER, S-9, AROCLOR 1254 (30%), Method: PREINCUBATION inactive; negative

Nc1ccn([C@@H]2O[C@H](COP(=O)(O)O)[C@@H](O)[C@H]2O)c(=O)n1
inactive: [1] inactive; negative | Test System: AMES SALMONELLA TYPHIMURIUM, Strain/Indicator: TA97, Metabolic Activation: RAT, LIVER, S-9, AROCLOR 1254, Method: PREINCUBATION inactive; negative | Test System: AMES SALMONELLA TYPHIMURIUM, Strain/Indicator: TA102, Metabolic Activation: NONE, Method: PREINCUBATION inactive; negative | Test System: AMES SALMONELLA TYPHIMURIUM, Strain/Indicator: TA102, Metabolic Activation: RAT, LIVER, S-9, AROCLOR 1254, Method: PREINCUBATION inactive; negative

C=C1C[C@@]23CC[C@H]4[C@@](C)(CCC[C@@]4(C)C(=O)O)[C@@H]2CC[C@]1(O[C@@H]1O[C@H](CO)[C@@H](O)[C@H](O)[C@H]1O[C@@H]1O[C@H](CO)[C@@H](O)[C@H](O)[C@H]1O)C3
inactive: Test System: AMES SALMONELLA TYPHIMURIUM, Strain/Indicator: TM677, Metabolic Activation: RAT, LIVER, S-9, AROCLOR 1254, Method: PREINCUBATION inactive; negative
